Test results taken from PubChem BioAssay (NCI).
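Compound exposure: 48 hours, 5 concentrations, 96-well plates. GI50: concentration for 50% inhibition of growth. Definition used: TGI = concentration required for complete inhibition of growth.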

Columns and labels:
Assay in all cases: NCI anticancer screen, dose series, 48 h
KM12 colon = test system: KM12 colon
U251 CNS = test system: U251 CNS
T-47D breast = test system: T-47D breast
SF-268 CNS = test system: SF-268 CNS
A498 renal = test system: A498 renal
EKVX NSCLC = test system: EKVX NSCLC
SK-MEL-5 melanoma = test system: SK-MEL-5 melanoma
ACHN renal = test system: ACHN renal
LOX IMVI melanoma = test system: LOX IMVI melanoma
OVCAR-5 ovarian = test system: OVCAR-5 ovarian
PC-3 prostate = test system: PC-3 prostate
HL-60(TB) leukemia = test system: HL-60(TB) leukemia
MDA-MB-435 = test system: MDA-MB-435
SK-MEL-2 melanoma = test system: SK-MEL-2 melanoma
SNB-75 CNS = test system: SNB-75 CNS
COLO 205 colon = test system: COLO 205 colon
K-562 leukemia = test system: K-562 leukemia
A549 NSCLC = test system: A549 NSCLC
DU-145 prostate = test system: DU-145 prostate
SN12C renal = test system: SN12C renal
HCT-116 colon = test system: HCT-116 colon
SW-620 colon = test system: SW-620 colon
OVCAR-4 ovarian = test system: OVCAR-4 ovarian
786-0 renal = test system: 786-0 renal
RXF 393 renal = test system: RXF 393 renal
NCI-H226 lung = test system: NCI-H226 lung
IGROV1 ovarian = test system: IGROV1 ovarian
HCC-2998 colon = test system: HCC-2998 colon
OVCAR-8 ovarian = test system: OVCAR-8 ovarian
CAKI-1 renal = test system: CAKI-1 renal
TK-10 renal = test system: TK-10 renal
SK-OV-3 ovarian = test system: SK-OV-3 ovarian
BT-549 breast = test system: BT-549 breast
SK-MEL-28 melanoma = test system: SK-MEL-28 melanoma
SNB-19 CNS = test system: SNB-19 CNS
RPMI-8226 leukemia = test system: RPMI-8226 leukemia
HOP-62 NSCLC = test system: HOP-62 NSCLC
HS 578T breast = test system: HS 578T breast
MALME-3M melanoma = test system: MALME-3M melanoma
UACC-62 melanoma = test system: UACC-62 melanoma
HT29 colon = test system: HT29 colon
SF-295 CNS = test system: SF-295 CNS
M14 melanoma = test system: M14 melanoma
MDA-MB-231 breast = test system: MDA-MB-231 breast
HCT-15 colon = test system: HCT-15 colon
NCI-H522 lung = test system: NCI-H522 lung
NCI-H23 lung = test system: NCI-H23 lung
HOP-92 NSCLC = test system: HOP-92 NSCLC
SF-539 CNS = test system: SF-539 CNS
SR leukemia = test system: SR leukemia
NCI-H460 lung = test system: NCI-H460 lung
MOLT-4 leukemia = test system: MOLT-4 leukemia
UO-31 renal = test system: UO-31 renal
NCI/ADR-RES ovarian = test system: NCI/ADR-RES ovarian
UACC-257 melanoma = test system: UACC-257 melanoma
MCF7 breast = test system: MCF7 breast
CCRF-CEM leukemia = test system: CCRF-CEM leukemia

CC[C@]12CC(C(=O)OC)=C3Nc4ccccc4[C@@]34CCN(C14)[C@@H]1c3cc4c(cc3O[C@@H]1[C@H]2O)NC1=C(C(=O)OC)C[C@@]2(CC)C3N(CC[C@@]143)C[C@H]1O[C@H]12 (some centres not stated)
GI50 (KM12 colon): 636 nM
TGI (KM12 colon): > 50000 nM
GI50 (U251 CNS): 738 nM
TGI (U251 CNS): 4720 nM
GI50 (T-47D breast): 616 nM
TGI (T-47D breast): > 50000 nM
GI50 (SF-268 CNS): 1270 nM
TGI (SF-268 CNS): > 50000 nM
GI50 (A498 renal): 193 nM
TGI (A498 renal): 1160 nM
GI50 (EKVX NSCLC): 600 nM
TGI (EKVX NSCLC): > 50000 nM
GI50 (SK-MEL-5 melanoma): 583 nM
TGI (SK-MEL-5 melanoma): 1320 nM
GI50 (ACHN renal): 320 nM
TGI (ACHN renal): 5650 nM
GI50 (LOX IMVI melanoma): 167 nM
TGI (LOX IMVI melanoma): 721 nM
GI50 (OVCAR-5 ovarian): 614 nM
TGI (OVCAR-5 ovarian): > 50000 nM
GI50 (PC-3 prostate): 403 nM
TGI (PC-3 prostate): > 50000 nM
GI50 (HL-60(TB) leukemia): 86.2 nM
TGI (HL-60(TB) leukemia): > 50000 nM
GI50 (MDA-MB-435): 370 nM
TGI (MDA-MB-435): 8770 nM
GI50 (SK-MEL-2 melanoma): 537 nM
TGI (SK-MEL-2 melanoma): 5040 nM
GI50 (SNB-75 CNS): 97.2 nM
GI50 (COLO 205 colon): 278 nM
TGI (COLO 205 colon): 1010 nM
GI50 (K-562 leukemia): 220 nM
TGI (K-562 leukemia): > 50000 nM
GI50 (A549 NSCLC): 510 nM
TGI (A549 NSCLC): > 44400 nM
GI50 (DU-145 prostate): 1850 nM
TGI (DU-145 prostate): > 50000 nM
GI50 (SN12C renal): 641 nM
TGI (SN12C renal): > 50000 nM
GI50 (HCT-116 colon): 367 nM
TGI (HCT-116 colon): 2840 nM
GI50 (SW-620 colon): 840 nM
TGI (SW-620 colon): > 20700 nM
GI50 (OVCAR-4 ovarian): 548 nM
TGI (OVCAR-4 ovarian): > 50000 nM
GI50 (786-0 renal): 274 nM
TGI (786-0 renal): > 50000 nM
GI50 (RXF 393 renal): 483 nM
TGI (RXF 393 renal): 1900 nM
GI50 (NCI-H226 lung): 509 nM
TGI (NCI-H226 lung): > 11300 nM
GI50 (IGROV1 ovarian): 349 nM
TGI (IGROV1 ovarian): > 50000 nM
GI50 (HCC-2998 colon): 492 nM
TGI (HCC-2998 colon): 1700 nM
GI50 (OVCAR-8 ovarian): 480 nM
TGI (OVCAR-8 ovarian): > 50000 nM
GI50 (CAKI-1 renal): 122 nM
TGI (CAKI-1 renal): > 20400 nM
GI50 (TK-10 renal): 130 nM
TGI (TK-10 renal): 3060 nM
GI50 (SK-OV-3 ovarian): 296 nM
GI50 (BT-549 breast): 889 nM
TGI (BT-549 breast): 8260 nM
GI50 (SK-MEL-28 melanoma): 974 nM
TGI (SK-MEL-28 melanoma): > 50000 nM
GI50 (SNB-19 CNS): 443 nM
TGI (SNB-19 CNS): > 50000 nM
GI50 (RPMI-8226 leukemia): 185 nM
TGI (RPMI-8226 leukemia): 1440 nM
GI50 (HOP-62 NSCLC): 201 nM
TGI (HOP-62 NSCLC): > 50000 nM
GI50 (HS 578T breast): 337 nM
TGI (HS 578T breast): > 50000 nM
GI50 (MALME-3M melanoma): 504 nM
TGI (MALME-3M melanoma): 21000 nM
GI50 (UACC-62 melanoma): 89.5 nM
TGI (UACC-62 melanoma): 1180 nM
GI50 (HT29 colon): 226 nM
TGI (HT29 colon): > 25400 nM
GI50 (SF-295 CNS): 317 nM
TGI (SF-295 CNS): > 50000 nM
GI50 (M14 melanoma): 423 nM
TGI (M14 melanoma): > 20600 nM
GI50 (MDA-MB-231 breast): 311 nM
TGI (MDA-MB-231 breast): > 50000 nM
GI50 (HCT-15 colon): 160 nM
TGI (HCT-15 colon): 6400 nM
GI50 (NCI-H522 lung): 224 nM
TGI (NCI-H522 lung): 2930 nM
GI50 (NCI-H23 lung): 632 nM
TGI (NCI-H23 lung): > 36200 nM
GI50 (HOP-92 NSCLC): 134 nM
TGI (HOP-92 NSCLC): 2070 nM
GI50 (SF-539 CNS): 417 nM
TGI (SF-539 CNS): > 50000 nM
GI50 (SR leukemia): 183 nM
TGI (SR leukemia): > 50000 nM
GI50 (NCI-H460 lung): 812 nM
TGI (NCI-H460 lung): > 30700 nM
GI50 (MOLT-4 leukemia): 912 nM
TGI (MOLT-4 leukemia): > 50000 nM
GI50 (UO-31 renal): 148 nM
TGI (UO-31 renal): > 50000 nM
GI50 (NCI/ADR-RES ovarian): 290 nM
TGI (NCI/ADR-RES ovarian): > 50000 nM
GI50 (UACC-257 melanoma): 363 nM
TGI (UACC-257 melanoma): 10200 nM
GI50 (MCF7 breast): 109 nM
TGI (MCF7 breast): > 50000 nM
GI50 (CCRF-CEM leukemia): 590 nM
TGI (CCRF-CEM leukemia): > 50000 nM
